# Target: human ALK2 (Homo sapiens (Human), UniProt Q04771)
# Test: LANCE Ultra ULight enzymatic assay (FOP Enzymatic Assay), ALK2
# Format: biochemical
# Settings: 10 μM ATP
# human ALK2, sequence (Q04771 21-509): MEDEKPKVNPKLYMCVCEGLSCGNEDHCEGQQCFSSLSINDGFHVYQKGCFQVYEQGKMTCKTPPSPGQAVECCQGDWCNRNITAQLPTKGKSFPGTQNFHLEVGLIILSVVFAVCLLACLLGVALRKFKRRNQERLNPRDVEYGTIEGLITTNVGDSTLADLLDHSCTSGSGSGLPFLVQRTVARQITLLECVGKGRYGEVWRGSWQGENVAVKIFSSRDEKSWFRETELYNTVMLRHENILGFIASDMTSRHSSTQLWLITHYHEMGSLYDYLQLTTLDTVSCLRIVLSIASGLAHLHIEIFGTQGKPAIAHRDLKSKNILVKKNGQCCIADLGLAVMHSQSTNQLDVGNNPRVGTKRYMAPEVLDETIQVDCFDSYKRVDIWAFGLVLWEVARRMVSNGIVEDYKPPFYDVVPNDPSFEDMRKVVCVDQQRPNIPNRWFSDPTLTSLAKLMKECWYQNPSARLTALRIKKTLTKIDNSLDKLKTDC
row,IC50 [nM],Structure (SMILES)
1,94,"[2H]c1ccc2c(-c3cnn4cc(-c5ccc(OCCN6CCCCC6)cn5)cnc34)cccc2n1 [Compound 47, 5-(6-(5-(2-(piperidin-1-yl)ethoxy)pyridin-2-yl)pyrazolo[1,5-a]pyrimidin-3-yl)-2-^2H-quinoline]"

# Same assay, conditions: read-out: ALK2 IC50 (nM) at 10 μM ATP; 10 μM ATP
row,Structure (SMILES),IC50 [nM]
1,c1ccc2c(-c3cnn4cc(-c5ccc(N6CCNCC6)cn5)cnc34)ccnc2c1 [Compound 3],16
2,"c1ccc2c(-c3cnn4cc(-c5ccc(N6C[C@@H]7C[C@H]6CN7)cc5)cnc34)ccnc2c1 [Compound 6, 4-(6-(4-((1S,4S)-2,5-diazabicyclo[2.2.1]heptan-2-yl)phenyl)pyrazolo[1,5-a]pyrimidin-3-yl)quinoline]",12
3,"Cc1cc(-c2cnn3cc(-c4ccc(N5[C@H](C)CNC[C@@H]5C)cc4)cnc23)c2ccccc2n1 [Compound 11, 4-(6-(4-((2R,6S)-2,6-dimethylpiperazin-1-yl)phenyl)pyrazolo[1,5-a]pyrimidin-3-yl)-2-methylquinoline]",7.7
4,"NC(=O)c1ccc2c(-c3cnn4cc(-c5ccc(N6CCNCC6)cc5)cnc34)ccnc2c1 [Compound 15, 4-(6-(4-(piperazin-1-yl)phenyl)pyrazolo[1,5-a]pyrimidin-3-yl)quinoline-7-carboxamide]",127
5,"OCc1ccc2c(-c3cnn4cc(-c5ccc(N6CCNCC6)cc5)cnc34)ccnc2c1 [Compound 16, (4-(6-(4-(piperazin-1-yl)phenyl)pyrazolo[1,5-a]pyrimidin-3-yl)quinolin-7-yl)methanol]",102
6,"CNCc1ccc2c(-c3cnn4cc(-c5ccc(N6CCNCC6)cc5)cnc34)ccnc2c1 [Compound 18, N-methyl-1-(4-(6-(4-(piperazin-1-yl)phenyl)pyrazolo[1,5-a]pyrimidin-3-yl)quinolin-7-yl)methanamine]",906
7,"CN(C)Cc1ccc2c(-c3cnn4cc(-c5ccc(N6CCNCC6)cc5)cnc34)ccnc2c1 [Compound 19, N,N-dimethyl-1-(4-(6-(4-(piperazin-1-yl)phenyl)pyrazolo[1,5-a]pyrimidin-3-yl)quinolin-7-yl)methanamine]",407
8,"NCc1ccc2c(-c3cnn4cc(-c5ccc(N6CCNCC6)cc5)cnc34)ccnc2c1 [Compound 20, (4-(6-(4-(piperazin-1-yl)phenyl)pyrazolo[1,5-a]pyrimidin-3-yl)quinolin-7-yl)methanamine]",706
9,"c1cc(-c2cnn3cc(-c4ccc(N5CCNCC5)cc4)cnc23)c2ccc(CN3CCCC3)cc2n1 [Compound 21, 4-(6-(4-(piperazin-1-yl)phenyl)pyrazolo[1,5-a]pyrimidin-3-yl)-7-(pyrrolidin-1-ylmethyl)quinoline]",2140
10,"NC(=O)c1cccc2c(-c3cnn4cc(-c5ccc(N6CCNCC6)cc5)cnc34)ccnc12 [Compound 23, 4-(6-(4-(piperazin-1-yl)phenyl)pyrazolo[1,5-a]pyrimidin-3-yl)quinoline-8-carboxamide]",26
11,"OCc1cccc2c(-c3cnn4cc(-c5ccc(N6CCNCC6)cc5)cnc34)ccnc12 [Compound 24, (4-(6-(4-(piperazin-1-yl)phenyl)pyrazolo[1,5-a]pyrimidin-3-yl)quinolin-8-yl)methanol]",62
12,"Nc1ccc2c(-c3cnn4cc(-c5ccc(N6CCNCC6)cc5)cnc34)ccnc2c1 [Compound 27, 4-(6-(4-(piperazin-1-yl)phenyl)pyrazolo[1,5-a]pyrimidin-3-yl)quinolin-7-amine]",44
13,"Oc1ccc2c(-c3cnn4cc(-c5ccc(N6CCNCC6)cc5)cnc34)ccnc2c1 [Compound 28, 4-(6-(4-(piperazin-1-yl)phenyl)pyrazolo[1,5-a]pyrimidin-3-yl)quinolin-7-ol]",31
14,"c1cc(-c2cnn3cc(-c4ccc(N5CCNCC5)nc4)cnc23)c2cccnc2c1 [Compound 30, 5-(6-(6-(piperazin-1-yl)pyridin-3-yl)pyrazolo[1,5-a]pyrimidin-3-yl)quinoline]",84
15,"CC(C)(CN1CCCCC1)Oc1ccc(-c2cnc3c(-c4cccc5ncccc45)cnn3c2)cc1 [Compound 32, 5-(6-(4-((2-methyl-1-(piperidin-1-yl)propan-2-yl)oxy)phenyl)pyrazolo[1,5-a]pyrimidin-3-yl)quinoline]",106
16,C[C@@H]1CNC[C@H](C)N1c1ccc(-c2cnc3c(-c4cccc5ncccc45)cnn3c2)cn1 [Compound 34],56
17,"Clc1cc(-c2cnc3c(-c4cccc5ncccc45)cnn3c2)ccc1N1CCNCC1 [Compound 36, 5-(6-(3-chloro-4-(piperazin-1-yl)phenyl)pyrazolo[1,5-a]pyrimidin-3-yl)quinoline]",46
18,Fc1cc(-c2cnc3c(-c4cccc5ncccc45)cnn3c2)ccc1N1CCNCC1 [Compound 40],32
19,"c1ccc2c(-c3cnn4cc(-c5ccc(OCCN6CCNCC6)nc5)cnc34)ccnc2c1 [Compound 41, 4-(6-(6-(2-(piperazin-1-yl)ethoxy)pyridin-3-yl)pyrazolo[1,5-a]pyrimidin-3-yl)quinoline]",22
20,"CN1CCN(CCOc2ccc(-c3cnc4c(-c5ccnc6ccccc56)cnn4c3)cn2)CC1 [Compound 43, 4-(6-(6-(2-(4-methylpiperazin-1-yl)ethoxy)pyridin-3-yl)pyrazolo[1,5-a]pyrimidin-3-yl)quinoline]",122
21,"CN1CCN(CCOc2ccc(-c3cnc4c(-c5cccc6ncccc56)cnn4c3)cn2)CC1 [Compound 44, 5-(6-(6-(2-(4-methylpiperazin-1-yl)ethoxy)pyridin-3-yl)pyrazolo[1,5-a]pyrimidin-3-yl)quinoline]",17
22,"Clc1cc(-c2cnc3c(-c4ccnc5ccccc45)cnn3c2)ccc1OCCN1CCCCC1 [Compound 45, 4-(6-(3-chloro-4-(2-(piperidin-1-yl)ethoxy)phenyl)pyrazolo[1,5-a]pyrimidin-3-yl)quinoline]",56
23,Clc1cc(-c2cnc3c(-c4cccc5ncccc45)cnn3c2)ccc1OCCN1CCCCC1 [Compound 46],16
24,"Cc1ccc2c(-c3cnn4cc(-c5ccc(OCCN6CCNCC6)cn5)cnc34)cccc2n1 [Compound 50, 2-methyl-5-(6-(5-(2-(piperazin-1-yl)ethoxy)pyridin-2-yl)pyrazolo[1,5-a]pyrimidin-3-yl)quinoline]",643

# Further lines, results first:
row,IC50 [nM],Structure (SMILES)
1,68,"C(#Cc1cnc2c(-c3ccnc4ccccc34)cnn2c1)CN1CCNCC1 [Compound 4, 4-(6-(3-(piperazin-1-yl)prop-1-ynyl)pyrazolo[1,5-a]pyrimidin-3-yl)quinoline]"
2,103,"c1ccc2c(-c3cnn4cc(-c5cnc(N6CCNCC6)nc5)cnc34)ccnc2c1 [Compound 5, 4-(6-(2-(piperazin-1-yl)pyrimidin-5-yl)pyrazolo[1,5-a]pyrimidin-3-yl)quinoline]"
3,19,"c1ccc2c(-c3cnn4cc(-c5ncc(N6CCNCC6)s5)cnc34)ccnc2c1 [Compound 7, 5-(piperazin-1-yl)-2-(3-(quinolin-4-yl)pyrazolo[1,5-a]pyrimidin-6-yl)thiazole]"
4,24,"Clc1cc(-c2cnn3cc(-c4ccc(N5CCNCC5)cc4)cnc23)c2ccccc2n1 [Compound 8, 2-chloro-4-(6-(4-(piperazin-1-yl)phenyl)pyrazolo[1,5-a]pyrimidin-3-yl)quinoline]"
5,792,"Oc1cc(-c2cnn3cc(-c4ccc(N5CCNCC5)cc4)cnc23)c2ccccc2n1 [Compound 9, 4-(6-(4-(piperazin-1-yl)phenyl)pyrazolo[1,5-a]pyrimidin-3-yl)quinolin-2-ol]"
6,517,"OCCNCc1ccc2c(-c3cnn4cc(-c5ccc(N6CCNCC6)cc5)cnc34)ccnc2c1 [Compound 14, 2-(((4-(6-(4-(piperazin-1-yl)phenyl)pyrazolo[1,5-a]pyrimidin-3-yl)quinolin-7-yl)methyl)amino)ethanol]"
7,88,"O=C(O)c1cccc2c(-c3cnn4cc(-c5ccc(N6CCNCC6)cc5)cnc34)ccnc12 [Compound 22, 4-(6-(4-(piperazin-1-yl)phenyl)pyrazolo[1,5-a]pyrimidin-3-yl)quinoline-8-carboxylic acid]"
8,482,"NCc1cccc2c(-c3cnn4cc(-c5ccc(N6CCNCC6)cc5)cnc34)ccnc12 [Compound 25, (4-(6-(4-(piperazin-1-yl)phenyl)pyrazolo[1,5-a]pyrimidin-3-yl)quinolin-8-yl)methanamine]"
9,105,"CC(=O)Nc1ccc2c(-c3cnn4cc(-c5ccc(N6CCNCC6)cc5)cnc34)ccnc2c1 [Compound 26, N-(4-(6-(4-(piperazin-1-yl)phenyl)pyrazolo[1,5-a]pyrimidin-3-yl)quinolin-7-yl)acetamide]"
10,127,"c1cc(-c2cnn3cc(-c4ccc(OCCN5CCCCC5)nc4)cnc23)c2cccnc2c1 [Compound 29, 5-(6-(6-(2-(piperidin-1-yl)ethoxy)pyridin-3-yl)pyrazolo[1,5-a]pyrimidin-3-yl)quinoline]"
11,38,"c1cc(-c2cnn3cc(-c4ccc(OCCN5CCCCC5)cc4)cnc23)c2cccnc2c1 [Compound 31, 5-(6-(4-(2-(piperidin-1-yl)ethoxy)phenyl)pyrazolo[1,5-a]pyrimidin-3-yl)quinoline]"
12,22,"C[C@@H]1CNC[C@H](C)N1c1ccc(-c2cnc3c(-c4ccnc5ccccc45)cnn3c2)cn1 [Compound 33, 4-(6-(6-((2R,6S)-2,6-dimethylpiperazin-1-yl)pyridin-3-yl)pyrazolo[1,5-a]pyrimidin-3-yl)quinoline]"
13,30,"Clc1cc(-c2cnc3c(-c4ccnc5ccccc45)cnn3c2)ccc1N1CCNCC1 [Compound 35, 4-(6-(3-chloro-4-(piperazin-1-yl)phenyl)pyrazolo[1,5-a]pyrimidin-3-yl)quinoline]"
14,24,"N#Cc1cc(-c2cnc3c(-c4ccnc5ccccc45)cnn3c2)ccc1N1CCNCC1 [Compound 37, 2-(piperazin-1-yl)-5-(3-(quinolin-4-yl)pyrazolo[1,5-a]pyrimidin-6-yl)benzonitrile]"
15,47,N#Cc1cc(-c2cnc3c(-c4cccc5ncccc45)cnn3c2)ccc1N1CCNCC1 [Compound 38]
16,15,Fc1cc(-c2cnc3c(-c4ccnc5ccccc45)cnn3c2)ccc1N1CCNCC1 [Compound 39]
17,14,"c1cc(-c2cnn3cc(-c4ccc(OCCN5CCNCC5)nc4)cnc23)c2cccnc2c1 [Compound 42, 5-(6-(6-(2-(piperazin-1-yl)ethoxy)pyridin-3-yl)pyrazolo[1,5-a]pyrimidin-3-yl)quinoline]"
